In PMC8080067, “Tight binding of cytochrome b5 to cytochrome P450 17A1 is a critical feature of stimulation of C21 steroid lyase activity and androgen synthesis” (The Journal of Biological Chemistry, 2021):
Substitutions are numbered along the chain they refer to. Values joined by “and” are separate entries in the source; they are usually repeats but may differ in a detail not shown here. Identical values can stand only once. Like-named read-outs stand apart in the source and are kept apart here.

Assays:
WT P450 17A1 [1] = target: T1, WT P450 17A1 (Homo sapiens, UniProt P05093); experiment: Substrate-binding spectral titration (type I, ΔA388-A423)
T1 sequence (P05093 1-508): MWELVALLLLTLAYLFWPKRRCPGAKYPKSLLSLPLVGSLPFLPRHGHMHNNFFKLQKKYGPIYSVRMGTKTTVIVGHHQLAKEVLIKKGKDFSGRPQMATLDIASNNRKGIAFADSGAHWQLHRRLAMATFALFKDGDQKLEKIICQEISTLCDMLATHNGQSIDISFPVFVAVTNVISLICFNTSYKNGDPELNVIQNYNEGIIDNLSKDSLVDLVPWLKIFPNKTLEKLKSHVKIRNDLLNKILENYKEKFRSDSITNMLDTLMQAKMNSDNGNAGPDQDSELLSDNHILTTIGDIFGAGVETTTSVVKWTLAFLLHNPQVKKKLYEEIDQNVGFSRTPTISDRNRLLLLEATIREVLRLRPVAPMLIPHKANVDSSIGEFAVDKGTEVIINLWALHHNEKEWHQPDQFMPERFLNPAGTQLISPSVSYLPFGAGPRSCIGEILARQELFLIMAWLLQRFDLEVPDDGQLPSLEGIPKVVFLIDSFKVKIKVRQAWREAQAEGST
Method: (§1) The purified enzymes were diluted in 100 mM potassium phosphate buffer (pH 7.4) and divided in two 1.0-ml glass cuvettes. Spectra (350–500 nm) were recorded using an OLIS-DW2 spectrophotometer (On-Line Instrument Systems) with subsequent additions of the substrate. Differences in the absorbance between the wavelength maximum and minimum were plotted versus the substrate concentration ([44]). Kd values were calculated using nonlinear regression analysis in GraphPad Prism software (GraphPad) and the quadratic equation: Y=B+A/2E[(Kd+E+X)−(Kd+E+X)^2−4EX], set in Prism as: Y = B + (A/2) ∗ (1/E) ∗ ((Kd + E + X)-sqrt((Kd + E + X)^ˆ2 - (4 ∗ E ∗ X))).
(§2) Figure S2. […] Increasing concentrations of substrates were added to the sample and reference cuvettes in each case.

P450 17A1 E305G variant = target: T2, P450 17A1 E305G variant (Homo sapiens, UniProt P05093, E305G); experiment: as above
T2 sequence (P05093 1-508 E305G): T1 sequence (P05093 1-508) with E305G
Method: as §1, §2

P450 17A1 R347H variant = target: T3, P450 17A1 R347H variant (Homo sapiens, UniProt P05093, R347H); experiment: as above
T3 sequence (P05093 1-508 R347H): T1 sequence (P05093 1-508) with R347H
Method: as §1, §2

WT P450 17A1 [2] = target: WT P450 17A1 (Homo sapiens, UniProt P05093); experiment: Steady-state kinetics of steroid 17α-hydroxylation and lyase reactions, reconstituted system
Method: P450 catalytic activity assays to measure steroid hydroxylation and lyase reactions were carried out as described previously ([23], [37], [64]).
The reactions were initiated by adding an NADPH-regenerating system (final concentrations of 15 mM glucose 6-phosphate, 1.5 mM NADP^+, and 1 IU ml^−1 glucose 6-phosphate dehydrogenase) ([75]) and terminated by quenching and extracting with 2.0 ml CH2Cl2. Aliquots of the organic phases were dried and then dissolved in 100 μl of a CH3CN/H2O (1:1, v/v) mixture. […] The extraction procedure was then repeated, and the (Δ^4) reaction products were analyzed in a Waters Acquity UPLC system using a BEH C18 octadecylsilane column (2.1 mm × 100 mm, 1.7 μm). The reaction products were resolved using a mobile phase composed of solvents A (70% CH3OH, 30% H2O, v/v) and B (CH3CN), at a flow rate of 0.2 ml min^−1. The mobile phase linear gradient proceeded as follows: 0 to 1 min, 5% B; 4 min, 30% B; 4.5 min, 40% B; 4.55 to 6.75 min, 95% BA; and 7 to 10 min, 5% B. The reaction products were identified by coelution with commercial standards and quantified by the A243 peak areas. Steady-state kinetic parameters were estimated using nonlinear regression of hyperbolic fits in GraphPad Prism software, with equations used for kcat and the specificity constant kcat/Km ([76]): Y = (ksp ∗ X)/(1 + (ksp ∗ X/kcat)) and then deriving Km by division.
Target sequence in this assay (P00167 whole entry partner, one chain of several): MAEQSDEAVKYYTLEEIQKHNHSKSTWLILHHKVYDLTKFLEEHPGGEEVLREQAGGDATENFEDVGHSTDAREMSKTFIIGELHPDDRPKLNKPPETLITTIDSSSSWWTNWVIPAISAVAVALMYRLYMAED

[3] = Kd of P450 17A1·substrate complex, WT, P450 1.0 µM, quadratic fit

## CC(=O)C1CCC2C3CC=C4C[C@@H](O)CC[C@]4(C)C3CC[C@]12C (stereo partly drawn) [Pregnenolone]
WT P450 17A1 [1]; [3]
  Kd: 140 ± 60 nM
P450 17A1 E305G variant
  Kd: 260 ± 80 nM
P450 17A1 R347H variant
  Kd: 120 ± 50 nM
WT P450 17A1 [2]
  % WT (kcat/Km): 100%

## CC(=O)[C@H]1CC[C@H]2[C@@H]3CCC4=CC(=O)CC[C@]4(C)[C@H]3CC[C@]12C [Progesterone]
WT P450 17A1 [1]; [3]
  Kd: ~65 nM and 65 nM
P450 17A1 E305G variant
  Kd: 170 ± 80 nM
P450 17A1 R347H variant
  Kd: 230 ± 100 nM
WT P450 17A1 [2]
  % WT (kcat/Km): 100%

## CC(=O)[C@@]1(O)CCC2C3CC=C4C[C@@H](O)CC[C@]4(C)C3CC[C@@]21C (stereo partly drawn) [17α-OH pregnenolone]
WT P450 17A1 [1]
  Kd: 110 ± 50 nM
P450 17A1 E305G variant
  Kd: 410 ± 180 nM
P450 17A1 R347H variant
  Kd: 220 ± 100 nM
WT P450 17A1 [2]; lyase reaction (conversion to androstenedione or DHEA), WT
  % WT (kcat/Km): 100%
